Values after ≈ are worked out from the molar mass of the structure shown.
What was measured:
[1] = molecular target: T1, human progesterone receptor B (Homo sapiens, UniProt P06401); assay: Progesterone receptor-antagonistic action in stably transfected SK-N-MC cells with MMTV-LUC reporter (PR-B); format: cell-based; conditions: antagonistic potency against 0.1 nmol/l promegestone, 24 hours, luciferase
T1 construct: expressed in transfected cells; host or cells: SK-N-MC human neuroblastoma cells, stably transfected with pRChPR-B-neo and pMMTV-LUC
T1 sequence (P06401 1-933): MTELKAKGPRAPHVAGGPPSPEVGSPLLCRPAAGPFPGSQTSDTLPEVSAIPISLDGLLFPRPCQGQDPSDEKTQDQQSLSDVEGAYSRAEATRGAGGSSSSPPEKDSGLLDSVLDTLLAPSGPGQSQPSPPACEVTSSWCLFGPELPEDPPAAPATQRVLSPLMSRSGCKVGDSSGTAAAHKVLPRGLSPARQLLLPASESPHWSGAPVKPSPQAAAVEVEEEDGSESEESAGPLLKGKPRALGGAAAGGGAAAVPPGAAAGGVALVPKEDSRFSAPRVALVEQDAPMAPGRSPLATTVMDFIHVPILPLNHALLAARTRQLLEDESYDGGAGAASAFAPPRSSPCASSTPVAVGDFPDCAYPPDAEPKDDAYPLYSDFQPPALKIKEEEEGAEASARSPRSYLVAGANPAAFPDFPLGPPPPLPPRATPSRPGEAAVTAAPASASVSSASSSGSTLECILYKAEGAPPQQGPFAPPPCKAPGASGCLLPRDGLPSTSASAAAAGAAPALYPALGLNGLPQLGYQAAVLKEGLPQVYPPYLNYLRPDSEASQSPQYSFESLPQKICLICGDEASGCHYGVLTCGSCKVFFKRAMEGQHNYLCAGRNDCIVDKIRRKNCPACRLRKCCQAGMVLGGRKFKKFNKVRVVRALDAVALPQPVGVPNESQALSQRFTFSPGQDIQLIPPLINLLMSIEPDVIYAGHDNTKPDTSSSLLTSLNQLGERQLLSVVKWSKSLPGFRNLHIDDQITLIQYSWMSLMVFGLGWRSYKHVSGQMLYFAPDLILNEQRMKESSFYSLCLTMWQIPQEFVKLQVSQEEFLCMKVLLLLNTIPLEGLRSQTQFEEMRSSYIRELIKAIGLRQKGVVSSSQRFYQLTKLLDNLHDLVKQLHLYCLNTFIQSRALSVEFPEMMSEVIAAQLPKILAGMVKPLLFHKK
How it was run: (§1)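 SK-N-MC neuroblastoma cells stably expressing human PR-A or PR-B plus MMTV-LUC reporter, treated 24 h with test compound (0.01 nmol/l–[…]). Antagonist mode used co-treatment with 0.1 nmol/l promegestone; luciferase in lysates read as RLU, expressed as % efficacy and IC50/EC50.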

[2] = Metabolic stability in rat liver microsomes; format: in vitro ADME; conditions: for Predicted clearance [l/h/kg] Rat: well-stirred model
Protocol: (§2) Determination of Metabolic Stability in Human and Rat Liver Microsomes
(§3) The incubations were conducted with 2.4 ml of HLM solution (protein content 0.5 mg/ml), 30 μl of the test compound (final concentration 1 μM) and 0.6 ml of the cofactor mixture (═NADPH-generating system composed of 3 IU glucose-6-phosphate dehydrogenase, 14.6 mg glucose-6-phosphate, 1.2 mg NADP) at 37° C. in 100 mM phosphate buffer at pH 7.4. Samples were taken at 6 time points (2-60 min) and precipitated with an equal volume of methanol, and the recovery of the test substances used in the supernatant was determined by LC-MS/MS analysis. The half-life of substance degradation determined therefrom was used to calculate what is called the intrinsic clearance of the substance in the liver microsome preparation. […] In addition, under the assumptions that (i) absorption of the test substance is 100%, and (ii) the first pass is completely reflected by liver microsome metabolism, a maximum oral bioavailability (Fmax) was calculated.

[3] = molecular target: T2, human progesterone receptor A (Homo sapiens, UniProt P06401); assay: Progesterone receptor-antagonistic action in stably transfected SK-N-MC cells with MMTV-LUC reporter (PR-A); format: cell-based; conditions: antagonistic potency against 0.1 nmol/l promegestone, 24 hours, luciferase
T2 construct: expressed in transfected cells; host or cells: SK-N-MC human neuroblastoma cells, stably transfected with pRChPR-A-neo and pMMTV-LUC
T2 sequence (P06401 1-769 isoform P06401-2): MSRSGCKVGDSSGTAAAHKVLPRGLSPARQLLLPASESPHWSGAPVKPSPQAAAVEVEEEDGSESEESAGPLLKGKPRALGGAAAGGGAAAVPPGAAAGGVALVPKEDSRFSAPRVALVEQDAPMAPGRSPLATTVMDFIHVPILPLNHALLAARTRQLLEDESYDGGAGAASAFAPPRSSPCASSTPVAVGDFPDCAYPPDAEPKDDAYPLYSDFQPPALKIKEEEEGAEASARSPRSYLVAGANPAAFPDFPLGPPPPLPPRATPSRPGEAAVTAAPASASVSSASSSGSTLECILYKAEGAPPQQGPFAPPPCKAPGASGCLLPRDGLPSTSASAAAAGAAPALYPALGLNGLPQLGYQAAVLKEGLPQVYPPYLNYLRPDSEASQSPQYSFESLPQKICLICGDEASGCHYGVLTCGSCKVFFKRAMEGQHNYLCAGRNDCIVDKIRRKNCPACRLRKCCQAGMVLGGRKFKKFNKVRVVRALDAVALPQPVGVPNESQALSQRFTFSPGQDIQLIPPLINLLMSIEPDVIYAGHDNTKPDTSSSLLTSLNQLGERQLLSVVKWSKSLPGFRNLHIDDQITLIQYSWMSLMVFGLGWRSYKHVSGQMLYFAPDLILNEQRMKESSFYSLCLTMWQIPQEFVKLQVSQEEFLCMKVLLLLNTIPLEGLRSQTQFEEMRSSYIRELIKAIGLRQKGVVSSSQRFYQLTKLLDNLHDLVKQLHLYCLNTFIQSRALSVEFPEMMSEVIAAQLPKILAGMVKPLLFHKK
How it was run: as §1

[4] = Metabolic stability in human liver microsomes; format: in vitro ADME; conditions: for Predicted clearance [l/h/kg] Human: 1 μM, well-stirred model
Protocol: as §2
Isolated human liver microsomes (HLM) were used to assess the metabolic stability of compounds of general formula I.
as §3

[5] = Solubility in aqueous medium at pH 7.4; format: physicochemical; conditions: for solubility: aqueous medium, pH 7.4, aqueous buffer
Source text: In addition, some compounds have an unusually good solubility, for this active ingredient class, in aqueous medium under physiological conditions (Table 2).

| SMILES | IC50 [1] | Predicted Fmax [%] (maximum oral bioavailability) Rat [2] | Predicted clearance [l/h/kg] Rat [2] | IC50 [3] | Predicted Fmax [%] (maximum oral bioavailability) Human [4] | Predicted clearance [l/h/kg] Human [4] | solubility [5] | solubility (in words) ([5]; aqueous medium under physiological conditions) |
| --- | --- | --- | --- | --- | --- | --- | --- | --- |
| C=Cc1ccc([C@H]2C[C@@]3(C)[C@@H](CC[C@@]3(O)C(F)(F)C(F)(F)F)[C@@H]3CCC4=CC(=O)CCC4=C32)cc1 [Example 1, (8S,11R,13S,14S,17S)-17-hydroxy-13-methyl-17-pentafluoroethyl-11-(4-vinylphenyl)-1,2,6,7,8,11,12,13,14,15,16,17-dodecahydrocyclopenta[a]phenanthren-3-one] | 0.012 nM |  | 1.9 L/h/kg |  |  | 0.90 L/h/kg | 6 µg/mL (≈ 12.2 µM) |  |
| C[C@]12C[C@H](c3ccc(/C=C/CO)cc3)C3=C4CCC(=O)C=C4CC[C@H]3[C@@H]1CC[C@@]2(O)C(F)(F)C(F)(F)F [Example 2, (8S,11R,13S,14S,17S)-17-hydroxy-11-[4-((E)-3-hydroxypropenyl)phenyl]-13-methyl-17-pentafluoroethyl-1,2,6,7,8,11,12,13,14,15,16,17-dodecahydrocyclopenta[a]phenanthren-3-one] | 0.25 nM | 69% | 1.3 L/h/kg | 0.14 nM | 69% | 0.41 L/h/kg | 11 µg/mL (≈ 21.1 µM) |  |
| C[C@]12C[C@H](c3ccc(/C=C/CNC(=O)NCC(=O)O)cc3)C3=C4CCC(=O)C=C4CCC3C1CC[C@@]2(O)C(F)(F)C(F)(F)F (stereo partly drawn) [Example 52, 3-(3-{(E)-3-[4-((8S,11R,13S,14S,17S)-17-hydroxy-13-methyl-3-oxo-17-pentafluoroethyl-2,3,6,7,8,11,12,13,14,15,16,17-dodecahydro-1H-cyclopenta[a]phenanthren-11-yl)phenyl]allyl}ureido)acetic acid] | 2 nM |  |  | 3 nM |  |  |  |  |
| CCOC(=O)c1ccc(NC(=O)NC/C=C/c2ccc([C@H]3C[C@@]4(C)[C@@H](CC[C@@]4(O)C(F)(F)C(F)(F)F)[C@@H]4CCC5=CC(=O)CCC5=C43)cc2)cc1 [Example 55, 4-(3-{(E)-3-[4-((8S,11R,13S,14S,17S)-17-hydroxy-13-methyl-3-oxo-17-pentafluoroethyl-2,3,6,7,8,11,12,13,14,15,16,17-dodecahydro-1H-cyclopenta[a]phenanthren-11-yl)phenyl]allyl}ureido)benzoic acid ethyl ester] | 0.09 nM |  |  | 0.1 nM |  |  |  |  |
| C[C@]12C[C@H](c3ccc(/C=C/CNC(=O)Nc4ccc(C(=O)O)cc4)cc3)C3=C4CCC(=O)C=C4CC[C@H]3[C@@H]1CC[C@@]2(O)C(F)(F)C(F)(F)F [Example 56, 4-(3-{(E)-3-[4-((8S,11R,13S,14S,17S)-17-hydroxy-13-methyl-3-oxo-17-pentafluoroethyl-2,3,6,7,8,11,12,13,14,15,16,17-dodecahydro-1H-cyclopenta[a]phenanthren-11-yl)phenyl]allyl}ureido)benzoic acid] | 1.9 nM |  |  | 0.9 nM |  |  |  |  |
| C=CCNC(=O)NC/C=C/c1ccc([C@H]2C[C@@]3(C)[C@@H](CC[C@@]3(O)C(F)(F)C(F)(F)F)[C@@H]3CCC4=CC(=O)CCC4=C32)cc1 [Example 57, 1-allyl-3-{(E)-3-[4-((8S,11R,13S,14S,17S)-17-hydroxy-13-methyl-3-oxo-17-pentafluoroethyl-2,3,6,7,8,11,12,13,14,15,16,17-dodecahydro-1H-cyclopenta[a]phenanthren-11-yl)phenyl]allyl}urea] | 0.1 nM |  |  | 0.09 nM |  |  |  |  |
| C[C@]12C[C@H](c3ccc(CO)cc3)C3=C4CCC(=O)C=C4CC[C@H]3[C@@H]1CC[C@@]2(O)C(F)(F)C(F)(F)F [Ref. 1, (8S,11R,13S,14S,17S)-17-hydroxy-11-[4-(hydroxymethyl)phenyl]-13-methyl-17-pentafluoroethyl-1,2,6,7,8,11,12,13,14,15,16,17-dodecahydrocyclopenta[a]phenanthren-3-one, reference compound] | 0.8 nM |  | 0.8 L/h/kg | 0.7 nM |  | 0.7 L/h/kg |  |  |

Continued by falling IC50 [1], values first:

| IC50 [1] | Predicted Fmax [%] (maximum oral bioavailability) Rat [2] | Predicted clearance [l/h/kg] Rat [2] | IC50 [3] | Predicted Fmax [%] (maximum oral bioavailability) Human [4] | Predicted clearance [l/h/kg] Human [4] | solubility [5] | solubility (in words) ([5]; aqueous medium under physiological conditions) | SMILES |
| --- | --- | --- | --- | --- | --- | --- | --- | --- |
| 0.2 nM |  |  | 0.1 nM |  |  |  |  | C[C@]12C[C@H](c3ccc(/C=C/CNC(=O)Nc4ccc(Cl)cc4)cc3)C3=C4CCC(=O)C=C4CC[C@H]3[C@@H]1CC[C@@]2(O)C(F)(F)C(F)(F)F [Example 53, 1-(4-chlorophenyl)-3-{(E)-3-[4-((8S,11R,13S,14S,17S)-17-hydroxy-13-methyl-3-oxo-17-pentafluoroethyl-2,3,6,7,8,11,12,13,14,15,16,17-dodecahydro-1H-cyclopenta[a]phenanthren-11-yl)phenyl]allyl}urea] |
| 0.13 nM | 88% | 0.5 L/h/kg | 0.4 nM | 100% | 0.00 L/h/kg | 203 µg/mL (≈ 334 µM) | improved | C[C@]12C[C@H](c3ccc(/C=C/CC(C(=O)O)C(=O)O)cc3)C3=C4CCC(=O)C=C4CC[C@H]3[C@@H]1CC[C@@]2(O)C(F)(F)C(F)(F)F [Example 5, 2-{(E)-3-[4-((8S,11R,13S,14S,17S)-17-hydroxy-13-methyl-3-oxo-17-pentafluoroethyl-2,3,6,7,8,11,12,13,14,15,16,17-dodecahydro-1H-cyclopenta[a]phenanthren-11-yl)phenyl]allyl}malonic acid] |
| 0.02 nM | 57% | 1.8 L/h/kg | 0.01 nM | 36% | 0.84 L/h/kg | 6 µg/mL |  | C=CC=Cc1ccc([C@H]2C[C@@]3(C)C(CC[C@@]3(O)C(F)(F)C(F)(F)F)C3CCC4=CC(=O)CCC4=C32)cc1 (mixture of isomers) [Example 18, (8S,11R,13S,14S,17S)-11-[((E/Z)-4-buta-1,3-dienyl)phenyl]-17-hydroxy-13-methyl-17-pentafluoroethyl-1,2,6,7,8,11,12,13,14,15,16,17-dodecahydrocyclopenta[a]phenanthren-3-one] |
